Five substances from ChEMBL document CHEMBL1152680, “Peptide inhibitors of HIV-1 integrase: from mechanistic studies to improved lead compounds” (Bioorg Med Chem, 2009) can be followed below.

The source made the active and inactive calls. No cut-off for these calls is given here.

For orientation: Kd means the concentration at which binding is half-saturated. As usually defined, the inhibition is how much of the control response was suppressed.

For data set [1], the target named is T1, Human immunodeficiency virus type 1 integrase (Human immunodeficiency virus 1, UniProt Q7ZJM1). Briefly: Binding affinity to histidine-tagged HIV1 full length integrase by fluorescence anisotropy.
T1 sequence (Q7ZJM1 whole entry): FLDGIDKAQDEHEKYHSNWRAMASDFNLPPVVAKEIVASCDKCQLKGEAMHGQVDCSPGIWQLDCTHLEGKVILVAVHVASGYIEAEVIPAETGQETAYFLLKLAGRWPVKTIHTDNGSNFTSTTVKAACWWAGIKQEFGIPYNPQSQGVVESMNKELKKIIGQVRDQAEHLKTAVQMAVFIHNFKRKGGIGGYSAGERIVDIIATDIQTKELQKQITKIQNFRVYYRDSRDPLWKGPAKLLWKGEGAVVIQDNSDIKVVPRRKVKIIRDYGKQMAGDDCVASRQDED
The target in data set [2] is Human immunodeficiency virus type 1 integrase (Human immunodeficiency virus 1) (UniProt Q7ZJM1). Briefly: Inhibition of viral DNA binding to dimeric histidine-tagged HIV1 full length integrase treated for 20 mins before addition of fluorescein-labeled viral LTR DNA by fluorescence anisotropy. In general terms: Polarisation of emitted light reports the rotation of a fluorescent probe.
Sequence of Human immunodeficiency virus type 1 integrase (Human immunodeficiency virus 1) (Q7ZJM1 as listed by the source): as the sequence (Q7ZJM1 whole entry) above

Data set [3] has the same target. The data set is described as follows: Binding affinity to dimeric histidine-tagged HIV1 full length integrase by analytical gel filtration.
Data set [4] has the same target. Briefly: Ratio of compound to IN1 activity for inhibition of viral DNA binding to histidine-tagged HIV1 full length integrase.
Data set [5] shares this target. Briefly: Inhibition of integration activity of histidine-tagged HIV1 full length integrase at enzyme to peptide molar ratio of 1:50. Particulars: concentration not given here.
A short description of data set [6]: Cellular uptake in cytoplasm of human HeLa cells at 10 uM after 2 hrs by confocal microscopy. The class given is ADME, cell-based.
Data set [7] in a line: Cellular uptake in nucleus of human HeLa cells at 10 uM after 2 hrs by confocal microscopy. Format: ADME, cell-based.
Data set [8] deals with Human immunodeficiency virus 1. Briefly: Antiviral activity against HIV1 infected in human TZM-bl cells assessed as inhibition of viral replication at 62.5 uM treated 2 hrs before viral infection measured after 2 days by MAGI assay. Format: functional. Particulars: Human immunodeficiency virus 1, TZM-bl.
The test system of data set [9] is Human immunodeficiency virus 1. Briefly: Antiviral activity against HIV1 infected in human TZM-bl cells assessed as inhibition of viral replication treated 2 hrs before viral infection. The class given is functional, organism-based.
For data set [10], the target named is Human immunodeficiency virus type 1 integrase (Human immunodeficiency virus 1) (UniProt Q7ZJM1). Briefly: Binding affinity to HIV1 integrase catalytic core domain (118-132) by ELISA. On the technique in general: ELISA stands for enzyme-linked immunosorbent assay.
For data set [11] the target is unchanged. Briefly: Binding affinity to HIV1 integrase DNA binding domain (240-260) by ELISA.
Data set [12] has the same target. The data set is described as follows: Inhibition of histidine-tagged HIV1 full length integrase assessed as inhibition of viral DNA integration into human SupT1 cellular genome at 62.5 uM treated 2 hrs before viral infection measured after 24 hrs by real time PCR analysis. The class given is cell-based. A general note: Quantitative PCR measures a nucleic acid by following its amplification.

The subject of data set [13] is Human immunodeficiency virus 1. The data set is described as follows: Antiviral activity against HIV1 infected in human SupT1 cells assessed as change in total amount of viral DNA at 0.5 to 62.5 uM treated 2 hrs before viral infection measured after 24 hrs by real time PCR analysis. The class given is functional, organism-based. Particulars: SUP-T1.
Data set [14] deals with Human immunodeficiency virus type 1 integrase (Human immunodeficiency virus 1) (UniProt Q7ZJM1). The data set is described as follows: Inhibition of integration activity of histidine-tagged HIV1 full length integrase at 76 uM.
For data set [15] the target is unchanged. Briefly: Binding affinity to HIV1 integrase catalytic core domain (94-112) by ELISA.
The target of data set [16] is T1, Human immunodeficiency virus type 1 integrase. Briefly: Binding affinity to tetrameric histidine-tagged HIV1 full length integrase by fluorescence anisotropy.
In data set [17] the target is Human immunodeficiency virus type 1 integrase (Human immunodeficiency virus 1) (UniProt Q7ZJM1). The data set is described as follows: Inhibition of viral DNA binding to tetrameric histidine-tagged HIV1 full length integrase treated for 20 mins before addition of fluorescein-labeled viral LTR DNA by fluorescence anisotropy.
For data set [18] the target is unchanged. The data set is described as follows: Binding affinity to tetrameric histidine-tagged HIV1 full length integrase by analytical gel filtration.
Data set [19] has the same target. Briefly: Binding affinity to HIV1 integrase catalytic core domain (70-84) by ELISA.
Data set [20] is described as follows: Solubility of the compound. The class given is physicochemical.

As for H-WFVLLTITVLR-OH [WFVLLTITVLR], the dissociation constant (Kd) in [1] (read-out: Kd) was found to be 1800 nM. In addition, the inhibition entry in data set [2] was “Active”. Moreover, the result in [3], in [10] and in [11] was Active. Moreover, in [4], the Ratio was found to be 2. Besides, the inhibition in data set [5] is 24%; in data set [9] it was “Dose-dependent effect”; in [12] it was 23%. The Drug uptake entry in data set [6] and in [7] was “Active” each time. Moreover, in data set [8], the inhibition at 62.5 µM came to 29%. Besides, the result in [13] was inactive.

Regarding H-WITVLR-OH, in [1], the Kd result is given as “Not Active”. For the same substance, in data set [2], the inhibition result was “Active”. For the same substance, the inhibition result in data set [9] is “Dose-dependent effect”.

In the case of H-WQCLTLTHRG-OH, in data set [1] (read-out: Kd), the Kd came to 1700 nM. Moreover, the inhibition result in [2] is “Active”. Further, the result in [3], in data set [15] and in data set [10] was Active. In data set [4], the Ratio is 2. The inhibition was 73% in data set [14], “Dose-dependent effect” in [9] and 64% in data set [12]. For the same substance, the Drug uptake entry in data set [6] and in data set [7] was “Active” throughout. The inhibition at 62.5 µM in [8] is 68%. Besides, the result in [13] was inactive.

H-WQCLTLTHRGFVLLTITVLR-OH: the Kd in [16] came to 8700 nM. The inhibition entry in data set [17] was “Active”. The result in [18], in [19], in [15], in [10] and in data set [11] was Active. For the same substance, the inhibition in data set [14] is 77%; in [9], “Dose-dependent effect”; in data set [12] it was 63%. In addition, the inhibition at 62.5 µM in [8] was 70%. For the same substance, the solubility entry in data set [20] is on record as “Soluble”. For the same substance, the outcome in data set [13] was inactive.

In the case of H-WQSLTLTHRG-OH, the dissociation constant (Kd) in [1] (read-out: Kd) amounted to 1200 nM. In data set [2], the inhibition result is “Active”. In addition, the values for the inhibition in data set [5], in data set [9] and in data set [12] were 62%, “Dose-dependent effect” and 51%, respectively. Moreover, the Drug uptake result in [6] and in [7] was “Active” in each case. For the same substance, the inhibition at 62.5 µM in [8] is 60%. In data set [13], the result was inactive.
